From patent publication US9718774B2, “Indole carboxamide derivatives as P2X7 receptor antagonist” (ACTELION PHARMACEUTICALS LTD, priority 2012, dated 2017)

Target: T1, human recombinant P2X7 receptor (Homo sapiens, UniProt Q99572)
T1 construct: expressed in transfected cells
T1 sequence (Q99572 1-595): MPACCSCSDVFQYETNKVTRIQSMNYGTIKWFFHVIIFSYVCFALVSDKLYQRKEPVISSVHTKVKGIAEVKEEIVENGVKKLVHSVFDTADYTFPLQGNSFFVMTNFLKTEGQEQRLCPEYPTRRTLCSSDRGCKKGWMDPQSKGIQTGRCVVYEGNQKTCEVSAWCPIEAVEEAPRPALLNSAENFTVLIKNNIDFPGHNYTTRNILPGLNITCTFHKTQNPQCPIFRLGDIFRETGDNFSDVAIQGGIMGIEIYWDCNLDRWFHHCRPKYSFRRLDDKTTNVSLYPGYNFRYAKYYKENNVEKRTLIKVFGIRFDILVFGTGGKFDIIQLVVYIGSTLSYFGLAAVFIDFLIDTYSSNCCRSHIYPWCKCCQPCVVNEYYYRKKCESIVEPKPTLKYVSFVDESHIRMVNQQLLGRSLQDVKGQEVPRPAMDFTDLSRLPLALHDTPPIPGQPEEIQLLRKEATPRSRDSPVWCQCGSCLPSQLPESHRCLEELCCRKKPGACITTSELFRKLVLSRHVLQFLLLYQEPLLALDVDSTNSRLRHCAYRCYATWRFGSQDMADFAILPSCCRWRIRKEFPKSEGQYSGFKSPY
Assay: YO-PRO assay: P2X7 receptor antagonistic activity in HEK cells stably expressing P2X7
Format: cell-based
Settings: antagonistic activity with respect to the P2X7 receptor, read-out: IC50
Procedure: The P2X7 receptor antagonistic activity of the compounds of formula (I) is determined in accordance with the following experimental method.
Cell Line Generation and YO-PRO Assay
Cell line generation was performed in general according to established molecular cloning protocols. Specifically, RNA was extracted from human whole blood using the Qiagen RNeasy kit (Qiagen, CH) according to the manufacturer's instructions. Subsequently cDNA was made (Superscript II, Invitrogen AG, CH) and the human P2X7 gene (genbank ref. BC011913) was amplified with the following primers: […] and […]. The amplified sequence was subsequently ligated into a pcDNA3.1 (+) NotI, NheI digested plasmid. Human embryonic kidney (HEK) cells (ATCC CRL—1573, Manassas, Va., USA) were transfected with the pcDNA3.1 (+).hP2X7 plasmid using lipofectamine 2000 (Invitrogen AG, CH) according to the manufacturer's instructions. Following a 24 h exposure to DNA, cells were trypsinized and re-seeded at low density in the presence of 250 μg Geneticin. Geneticin resistant cells were then selected during two consecutive rounds of cloning by serial limiting dilution with visual inspection. Individual clones were screened for P2X7 expression by applying ATP and recording the resultant uptake of YO-PRO1. Specific cell clones were chosen based on RNA and protein expression. HEK cells stably expressing P2X7 were used to screen drugs using the YO-PRO1 assay. Cells were grown to confluency in adherent culture at 37° C. in a humidified 5% CO2 incubator (split 1/5 every 3-4 days with DMEM, 10% FCS, 1% Penicillin/Streptomycin, 250 μg/ml Geneticin). Adherent cells were detached by incubation with Trypsine (1 ml per 165 cm^2 dish) for 2 minutes, then washed off with 10 ml PBS (without Mg^2+ and Ca^2+), and resuspended in DMEM, 10% FCS, 1% Penicillin/Streptomycin, no Geneticin. 10′000 cells per well (48 hours before the assay) or 25′000 cells per well (Vi-cell XR (Beckman Coulter) (24 hours before the assay) in 50 μl full medium were seeded on 384-well black-wall, clear bottom plates, that were coated before with 10 μl per well Poly-L-Lysine, incubated for 30-60 minutes at 37° C. and washed once with PBS. Medium was removed from cells and 50 μl of assay buffer containing 0.5 μM YO-PRO-1 was added into the wells. Solutions of antagonist compounds were prepared by serial dilutions of a 10 mM DMSO solution of the antagonist into PBS using a BioMek (Beckman Coulter). Each concentration was performed in duplicate. For IC50 measurements 10 concentration points were measured (10 μM being the highest concentration followed by 9 serial dilution steps 1/3). The cells were incubated with the antagonists of the present invention together with ATP at a final concentration of 250 μM for 90 minutes. During this time period, four time points were taken. Each time point comprised the average of several measurements made within a few seconds. Fluorescence was measured in the FLIPR tetra (Molecular Devices) using the filters appropriate for YO-PRO-1 fluorescence (excitation 485/20, emission 530/25). The FLIPR tetra was equipped with Molecular Devices Screen Works system control software to define and run experimental protocols. […] For IC50 measurements the maximum intensity is plotted against the concentration of compound to determine IC50 values.

SMILES | IC50
O=C(NCC(c1ccc(Cl)nc1)N1CCCCC1)c1ccc2[nH]ccc2c1Cl (racemic) [Example 56, rac-4-Chloro-1H-indole-5-carboxylic acid [2-(6-chloro-pyridin-3-yl)-2-piperidin-1-yl-ethyl]-amide] | 8.8 nM
O=C(NCC(c1ccc(Oc2ccccc2)cc1)N1CCCCC1)c1ccc2[nH]ccc2c1Cl (racemic) [Example 57, rac-4-Chloro-1H-indole-5-carboxylic acid [2-(4-phenoxy-phenyl)-2-piperidin-1-yl-ethyl]-amide] | 187 nM
O=C(NCC(c1ccc(Oc2ccccc2)cc1)N1CCOCC1)c1ccc2[nH]ccc2c1Cl (racemic) [Example 58, rac-4-Chloro-1H-indole-5-carboxylic acid [2-morpholin-4-yl-2-(4-phenoxy-phenyl)-ethyl]-amide] | 102 nM
COc1ccc(C(CNC(=O)c2ccc3[nH]ccc3c2Cl)N2CCOCC2)cc1 (racemic) [Example 59, rac-4-Chloro-1H-indole-5-carboxylic acid [2-(4-methoxy-phenyl)-2-morpholin-4-yl-ethyl]-amide] | 55 nM
Cc1cnc(C(CNC(=O)c2ccc3[nH]ccc3c2Cl)N2CCCCC2)cn1 (racemic) [Example 60, rac-4-Chloro-1H-indole-5-carboxylic acid [2-(5-methyl-pyrazin-2-yl)-2-piperidin-1-yl-ethyl]-amide] | 232 nM
O=C(NCC(c1ccns1)N1CCCCC1)c1ccc2[nH]ccc2c1Cl (racemic) [Example 61, rac-4-Chloro-1H-indole-5-carboxylic acid (2-isothiazol-5-yl-2-piperidin-1-yl-ethyl)-amide] | 15 nM
O=C(NCC(c1cncs1)N1CCCCC1)c1ccc2[nH]ccc2c1Cl (racemic) [Example 62, rac-4-Chloro-1H-indole-5-carboxylic acid (2-piperidin-1-yl-2-thiazol-5-yl-ethyl)-amide] | 48 nM
Cc1cnc(C(CNC(=O)c2ccc3[nH]ccc3c2Cl)N2CCOCC2)cn1 (racemic) [Example 63, rac-4-Chloro-1H-indole-5-carboxylic acid [2-(5-methyl-pyrazin-2-yl)-2-morpholin-4-yl-ethyl]-amide] | 257 nM
O=C(NCC(c1cncs1)N1CCOCC1)c1ccc2[nH]ccc2c1Cl (racemic) [Example 64, rac-4-Chloro-1H-indole-5-carboxylic acid (2-morpholin-4-yl-2-thiazol-5-yl-ethyl)-amide] | 53 nM
O=C(NCC(c1ccc(Cl)nc1)C1CCCCC1)c1ccc2[nH]ccc2c1Cl (racemic) [Example 65, rac-4-Chloro-1H-indole-5-carboxylic acid [2-(6-chloro-pyridin-3-yl)-2-cyclohexyl-ethyl]-amide] | 76 nM
CC(C)CC(CNC(=O)c1ccc2[nH]ccc2c1Cl)c1ccc(Cl)nc1 (racemic) [Example 66, rac-4-Chloro-1H-indole-5-carboxylic acid [2-(6-chloro-pyridin-3-yl)-4-methyl-pentyl]-amide] | 32 nM
CCOC(CNC(=O)c1ccc2[nH]ccc2c1Cl)c1cnc(C)nc1 (racemic) [Example 67, rac-4-Chloro-1H-indole-5-carboxylic acid [2-ethoxy-2-(2-methyl-pyrimidin-5-yl)-ethyl]-amide] | 636 nM
Cc1ncc(C(CNC(=O)c2ccc3[nH]ccc3c2Cl)OC2CCCCC2)cn1 (racemic) [Example 69, rac-4-Chloro-1H-indole-5-carboxylic acid [2-cyclohexyloxy-2-(2-methyl-pyrimidin-5-yl)-ethyl]-amide] | 61 nM
Cc1ncc(C(CNC(=O)c2ccc3[nH]ccc3c2Cl)OC2CCOCC2)cn1 (racemic) [Example 70, rac-4-Chloro-1H-indole-5-carboxylic acid [2-(2-methyl-pyrimidin-5-yl)-2-(tetrahydro-pyran-4-yloxy)-ethyl]-amide] | 91 nM
CCC(CC)OC(CNC(=O)c1ccc2[nH]ccc2c1Cl)c1cnc(C)nc1 (racemic) [Example 71, rac-4-Chloro-1H-indole-5-carboxylic acid [2-(1-ethyl-propoxy)-2-(2-methyl-pyrimidin-5-yl)-ethyl]-amide] | 22 nM
Cc1ncc(C(CNC(=O)c2ccc3[nH]c(C)cc3c2Cl)N2CCOCC2)cn1 (racemic) [Example 72, rac-4-Chloro-2-methyl-1H-indole-5-carboxylic acid [2-(2-methyl-pyrimidin-5-yl)-2-morpholin-4-yl-ethyl]-amide] | 463 nM
O=C(NCC(c1cccnn1)N1CCCCC1)c1ccc2[nH]ccc2c1Cl (racemic) [Example 73, rac-4-Chloro-1H-indole-5-carboxylic acid (2-piperidin-1-yl-2-pyridazin-3-yl-ethyl)-amide] | 1010 nM
O=C(NCC(c1ccnc(O)c1)N1CCCCC1)c1ccc2[nH]ccc2c1Cl (racemic) [Example 74, rac-4-Chloro-1H-indole-5-carboxylic acid [2-(2-hydroxypyridin-4-yl)-2-piperidin-1-yl-ethyl]-amide] | 193 nM
Cc1ncc(C(CNC(=O)c2ccc3[nH]ccc3c2Cl)N2CCC(C(=O)OC(C)(C)C)CC2)cn1 (racemic) [Example 75, rac-1-[2-[(4-Chloro-1H-indole-5-carbonyl)-amino]-1-(2-methyl-pyrimidin-5-yl)-ethyl]-piperidine-4-carboxylic acid tert-butyl ester] | 258 nM
Cc1ncc(C(CNC(=O)c2ccc3[nH]ccc3c2Cl)N2CCC(C)CC2)cn1 (racemic) [Example 76, rac-4-Chloro-1H-indole-5-carboxylic acid [2-(4-methyl-piperidin-1-yl)-2-(2-methyl-pyrimidin-5-yl)-ethyl]-amide] | 348 nM
Cc1ncc(C(CNC(=O)c2ccc3[nH]ccc3c2Cl)N2CCC(F)CC2)cn1 (racemic) [Example 78, rac-4-Chloro-1H-indole-5-carboxylic acid [2-(4-fluoro-piperidin-1-yl)-2-(2-methyl-pyrimidin-5-yl)-ethyl]-amide] | 12 nM
Cc1ncc(C(CNC(=O)c2ccc3[nH]ccc3c2Cl)N2CCCC(F)(F)C2)cn1 (racemic) [Example 79, rac-4-Chloro-1H-indole-5-carboxylic acid [2-(3,3-difluoro-piperidin-1-yl)-2-(2-methyl-pyrimidin-5-yl)-ethyl]-amide] | 9.3 nM
Cc1ncc(C(CNC(=O)c2ccc3[nH]ccc3c2Cl)N2CCCCCC2)cn1 (racemic) [Example 80, rac-4-Chloro-1H-indole-5-carboxylic acid [2-azepan-1-yl-2-(2-methyl-pyrimidin-5-yl)-ethyl]-amide] | 25 nM
Cc1ncc(C(CNC(=O)c2ccc3[nH]ccc3c2Cl)N2CCCOCC2)cn1 (racemic) [Example 81, rac-4-Chloro-1H-indole-5-carboxylic acid [2-(2-methyl-pyrimidin-5-yl)-2-[1,4]oxazepan-4-yl-ethyl]-amide] | 26 nM
Cc1ncc(C(CNC(=O)c2ccc3[nH]ccc3c2Cl)N2CCC(F)(F)C2)cn1 (racemic) [Example 82, rac-4-Chloro-1H-indole-5-carboxylic acid [2-(3,3-difluoro-pyrrolidin-1-yl)-2-(2-methyl-pyrimidin-5-yl)-ethyl]-amide] | 34 nM
